Results reported in US20060034992A1, “Flavor and fragrance compounds” (priority 2002, published 2006).
Like-named read-outs stand apart in the source and are kept apart here.

Assay: Release rate of acetaldehyde from precursor (acid hydrolysis) in phosphate buffer, UV extinction at 280 nm
Format: physicochemical
Conditions: for half-life at 2.5 mg/mL: phosphate buffer; for rate constant k: Precursor + H2O -> Ethanol + Acetaldehyde
Description: The release rate of acetaldehyde from the precursor according to formula II with n=1 is measured and compared to 1,2-di[(1′-ethoxy)ethoxy]propane and acetaldehyde diethyl. The measurements are conducted as described in S. M. Oon and D. G. Kubler, “Hydrolysis of Aldal Acetals”, J. Org. Chem., 1982, 47, 1166-1171. A phosphate buffer solution (2 mL) is placed into a quartz cuvette and 5 mg of the respective acetaldehyde precursor is added. The mixture is mixed well and sealed using Parafilm™. The release of acetaldehyde is monitored in a UV-Photometer measuring the increase of the extinction at 280 nm over time. Depending on reaction speed, all 3 to 10 seconds measurements are conducted. […] by the formula C(t)=C0+Cx×(1−e^−kt), wherein C(t) the absorption corresponding to the concentration of acetaldehyde at time t, C0 absorption corresponding to the concentration of acetaldehyde at time t=0, Cx the total amount of acetaldehyde present in the precursor, k the rate constant and t the reaction time. The rate constants are calculated by a numeric approximation program (TABLE CURVE 2D, ©AISN Software Inc.). The half life time λ is calculated from the rate constant using the equation λ=−ln(0.5)/k.

[1] = pH 3.5, read-out: half-life (acetaldehyde release) (converted)
[2] = pH 3.0, read-out: half-life (acetaldehyde release) (converted)

half-life at 2.5 mg/mL [1] [min] | half-life at 2.5 mg/mL [2] [min] | release of acetaldehyde (acidic conditions) | stability (neutral pH conditions) | half-life at 2.5 mg/mL (pH 2.8, calculated from rate constant, read-out: half life time λ (converted)) [min] | half-life at 2.5 mg/mL (pH 3.18, calculated from rate constant, read-out: half life time λ (converted)) [min] | half-life at 2.5 mg/mL (pH 3.81, calculated from rate constant, read-out: half life time λ (converted)) [min] | half-life at 2.5 mg/mL (pH 4.14, calculated from rate constant, read-out: half life time λ (converted)) [min] | SMILES | rate constant k (pH 2.8) [s⁻¹] | rate constant k (pH 3.18) [s⁻¹] | rate constant k (pH 3.81) [s⁻¹] | rate constant k (pH 4.14) [s⁻¹]
65.1 | 10.4 | – | – | – | – | – | – | CCOC(C)OCC(C)OC(C)OCC (stereo not shown) [1,2-di[(1′-ethoxy)ethoyx]propane, 1,2-di[(1′-ethoxy)ethoxy]propane, reference compound] | – | – | – | –
16.1 | 5.1 | rapidly releases acetaldehyde | stable | 1.93 | 3.35 | 16.7 | 30.2 | CCOC(C)OC(C)OCC (stereo not shown) [1-ethoxy-1-(1-ethoxy-ethoxy)-ethane] | 0.005966 | 0.003446 | 0.00069 | 0.000382
41.5 | 9.65 | – | – | – | – | – | – | CCOC(C)OCC [acetaldehyde diethyl acetal, reference compound] | – | – | – | –
